# Results as given in patent publication US6525070B2, “Bipiperidine derivatives as modulators of CCR3 activity and as H1 antagonists” (AstraZeneca AB, priority 2000, dated 2003).
row,SMILES,melting point
1,COc1cc(C(=O)N2CCC(N3CCC(Oc4ccc(Cl)cc4C)CC3)CC2)ccc1N.O=C(O)C(F)(F)F.O=C(O)C(F)(F)F,110 to 111 °C
2,CC(=O)O.COc1cc(C(=O)N2CCC(N3CCC(Oc4ccc(Cl)c(Cl)c4)CC3)CC2)ccc1N,181 to 182 °C
3,CS(=O)(=O)c1cccc(C(=O)N2CCC(N3CCC(Oc4ccc(C(F)(F)F)cc4C#N)CC3)CC2)c1.O=C(O)C(F)(F)F,140 to 142 °C
4,Cc1cccc(OC2CCN(C3CCN(C(=O)c4cccc(S(C)(=O)=O)c4)CC3)CC2)n1.O=C(O)C(F)(F)F,94 to 95 °C
5,CS(=O)(=O)n1cc(C(=O)N2CCC(N3CCC(Oc4ccc(Cl)c(Cl)c4)CC3)CC2)c2ccccc21.Cl,104 to 105 °C
6,CC(=O)O.CS(=O)(=O)c1cccc(C(=O)N2CCC(N3CCC(Oc4ccc(Cl)c(Cl)c4)CC3)CC2)c1,111 to 112 °C
7,"Cc1cc(Cl)ccc1OC1CCN(C2CCN(C(=O)c3cccc(S(C)(=O)=O)c3)CC2)CC1 [Compound 1 of Table IV, [4-(4-chloro-2-methyl-phenoxy)-[1,4′]bipiperidinyl-1′-yl]-(3-methanesulfonyl-phenyl)-methanone]",64 to 65 °C
8,"O=S(=O)(c1ccc(-c2ccccn2)s1)N1CCC(N2CCC(Oc3ccc(F)c(F)c3)CC2)CC1 [Compound 3 of Table II, 4-(3,4-difluoro-phenoxy)-1′-(5-pyridin-2-yl-thiophene-2-sulfonyl)-[1,4′]bipiperidinyl]",126 to 127 °C
9,"CS(=O)(=O)c1cccc(NC(=O)N2CCC(N3CCC(Oc4ccc(Cl)c(Cl)c4)CC3)CC2)c1 [Compound 54 of Table IV, 4-(3,4-dichloro-phenoxy)-[1,4′]bipiperidinyl-1′-carboxylic acid (3-methanesulfonyl-phenyl)-amide]",73 to 75 °C
10,"O=S(=O)(c1ccc(-c2ccccn2)s1)N1CCC(N2CCC(Oc3ccc(Cl)c(Cl)c3)CC2)CC1 [Compound 280 of Table I, 4-(3,4-dichloro-phenoxy)-1′-(5-pyridin-2-yl-thiophene-2-sulfonyl)-[1,4′]bipiperidinyl]",149 to 150 °C

# Results, then the compound that gave them:
row,melting point,SMILES
1,78 to 80 °C,"CS(=O)(=O)c1ccccc1C(=O)N1CCC(N2CCC(Oc3ccc(Cl)c(Cl)c3)CC2)CC1 [Compound 293 of Table I, [4-(3,4-dichloro-phenoxy)-[1,4′]bipiperidinyl-1′-yl]-(2-methanesulfonyl-phenyl)-methanone]"
2,111 to 112 °C,"O=C(Nc1ccccc1)N1CCC(N2CCC(Oc3ccc(Cl)c(Cl)c3)CC2)CC1 [Compound 309 of Table IV, 4-(3,4-dichloro-phenoxy)-[1,4′]bipiperidinyl-1′-carboxylic acid phenylamide]"
3,82 to 83 °C,"CS(=O)(=O)c1ccc(C(=O)N2CCC(N3CCC(Oc4ccc(Cl)c(Cl)c4)CC3)CC2)s1 [Compound 332 of Table I, [4-(3,4-dichloro-phenoxy)-[1,4′]bipiperidinyl-1′-yl]-(2-methanesulfonyl-thiophen-5-yl)-methanone]"
4,189 to 190 °C,"CCn1cc(C(=O)N2CCC(N3CCC(Oc4ccc(Cl)c(Cl)c4)CC3)CC2)c(=O)c2ccc(C)nc21 [Compound 534 of Table I, 3-[4-(3,4-dichloro-phenoxy)-[1,4′]bipiperidinyl-1′-carbonyl]-1-ethyl-7-methyl-1H-[1,8]naphthyridin-4-one]"
5,150 to 152 °C,"CS(=O)(=O)Nc1cccc(C(=O)N2CCC(N3CCC(Oc4ccc(Cl)c(Cl)c4)CC3)CC2)c1 [Compound 583 of Table I, N-{3-[4-(3,4-dichloro-phenoxy)-[1,4′]bipiperidinyl-1′-carbonyl]-phenyl}-methanesulfonamide]"
6,219 to 220 °C,"CS(=O)(=O)Nc1ccccc1C(=O)N1CCC(N2CCC(Oc3ccc(Cl)c(Cl)c3)CC2)CC1 [Compound 587 of Table I, N-{2-[4-(3,4-dichloro-phenoxy)-[1,4′]bipiperidinyl-1′-carbonyl]-phenyl}-methanesulfonamide]"
7,76 to 77 °C,"O=C(C(CN1CCNCC1)c1ccccc1)N1CCC(N2CCC(Oc3ccc(Cl)c(Cl)c3)CC2)CC1 (centres unmarked) [Compound 595 of Table I, 1-[4-(3,4-dichloro-phenoxy)-[1,4′]bipiperidinyl-1′-yl]-2-phenyl-3-piperazin-1-yl-propan-1-one]"
